Where two headings read alike, the source gives them in different places.
Key:
HCV replicon cells = experiment: HCV replicon FRET / luciferase assay; format: cell-based, Hepatitis C virus
[1] = biological target: T1, HCV NS5B RdRp genotype 1b (Hepatitis C virus genotype 1b, UniProt Q9WMX2); experiment: HCV NS5B RdRp enzyme assay (standard / modified); format: biochemical
T1 construct: The protein was expressed with an 18 amino acid C-terminal truncation to enhance the solubility; made in house; host or cells: E. coli BL21(DE3), pET21a vector
T1 sequence (Q9WMX2 2420-2992): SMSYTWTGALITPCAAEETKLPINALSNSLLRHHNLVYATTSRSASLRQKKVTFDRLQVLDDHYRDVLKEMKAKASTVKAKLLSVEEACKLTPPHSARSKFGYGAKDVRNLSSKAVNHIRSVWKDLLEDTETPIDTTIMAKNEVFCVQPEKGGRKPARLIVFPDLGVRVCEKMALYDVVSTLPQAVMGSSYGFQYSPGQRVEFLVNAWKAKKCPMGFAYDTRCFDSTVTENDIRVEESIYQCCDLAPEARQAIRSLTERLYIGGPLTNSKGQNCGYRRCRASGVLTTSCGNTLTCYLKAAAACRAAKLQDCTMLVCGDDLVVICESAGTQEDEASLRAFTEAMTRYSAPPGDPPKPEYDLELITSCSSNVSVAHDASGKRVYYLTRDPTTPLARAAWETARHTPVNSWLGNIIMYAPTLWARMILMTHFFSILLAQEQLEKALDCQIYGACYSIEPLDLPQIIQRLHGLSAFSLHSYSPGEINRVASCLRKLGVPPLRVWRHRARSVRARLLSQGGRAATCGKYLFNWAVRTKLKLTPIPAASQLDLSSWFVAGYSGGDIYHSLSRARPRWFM

[2] = HCV replicon cells, FRET or luciferase activity
[3] = HCV NS5B RdRp genotype 1b enzyme

Work on CCN1CC2CCC(C1)N2C(=O)C12CC1c1cc(OC)ccc1-c1c(C3CCCCC3)c3ccc(C(=O)NS(=O)(=O)N(C)C)cc3n1C2 (stereo not shown) [drawing 61] yielded an EC50 (HCV replicon cells; [2]) of 1 to 500 nM and an IC50 [1, 3] of 1 to 500 nM.
Molecule COc1ccc2c(c1)C1CC1(C(=O)N1C3CCC1CN(C(C)C)C3)Cn1c-2c(C2CCCCC2)c2ccc(C(=O)NS(=O)(=O)N(C)C)cc21 (stereo not shown) [drawing 62] has an EC50 (HCV replicon cells; [2]) of 1 to 500 nM and an IC50 [1, 3] of 1 to 500 nM.
For COc1ccc2c(c1)C1CC1(C(=O)N1C3CCC1CN(C(C)=O)C3)Cn1c-2c(C2CCCCC2)c2ccc(C(=O)NS(=O)(=O)N(C)C)cc21 (stereo not shown) [drawing 35], the EC50 (HCV replicon cells; Hepatitis C virus) was 1 to 500 nM and the IC50 [1] was 1 to 500 nM.
Molecule CNS(=O)(=O)NC(=O)c1ccc2c(C3CCCCC3)c3n(c2c1)CC1(C(=O)N2C4CCC2CN(C)C4)CC1c1cc(OC)ccc1-3 (stereo not shown) [drawing 50] has an EC50 (HCV replicon cells; [2]) of 1 to 500 nM and an IC50 [1, 3] of 1 to 500 nM.
Work on CNS(=O)(=O)NC(=O)c1ccc2c(C3CCCCC3)c3n(c2c1)CC1(C(=O)N2C4CCC2CN(C)C4)CC1c1cc(OC)ccc1-3 (stereo not shown) [drawing 29] yielded an EC50 (HCV replicon cells; Hepatitis C virus) of 1 to 500 nM and an IC50 [1] of 1 to 500 nM.
COc1ccc2c(c1)[C@@H]1C[C@]1(C(=O)N1[C@@H]3CC[C@H]1CN(S(C)(=O)=O)C3)Cn1c-2c(C2CCCCC2)c2ccc(C(=O)NS(=O)(=O)N(C)C)cc21 was tested, and the EC50 (HCV replicon cells; Hepatitis C virus) was 1 to 500 nM and the IC50 [1] was 1 to 500 nM.
Work on COc1ccc2c(c1)C1CC1(C(=O)N1C3CCC1CN(C)C3)Cn1c-2c(C2CCCCC2)c2ccc(C(=O)NS(N)(=O)=O)cc21 (stereo not shown) [drawing 63] yielded an EC50 (HCV replicon cells; [2]) of 1 to 500 nM and an IC50 [1, 3] of 1 to 500 nM.
For COc1cccc2c1C1CC1(C(=O)N1C3CCC1CN(C)C3)Cn1c-2c(C2CCCCC2)c2ccc(C(=O)O)cc21 (stereo not shown), the EC50 (HCV replicon cells; Hepatitis C virus) was 1 to 500 nM and the IC50 [1] was 1 to 500 nM.
COc1ccc2c(c1)C1CC1(C(=O)N1C3CCC1CN(Cc1ccccc1)C3)Cn1c-2c(C2CCCCC2)c2ccc(C(=O)NS(=O)(=O)N(C)C)cc21 (stereo not shown) [drawing 58] showed an EC50 (HCV replicon cells; [2]) of 1 to 500 nM and an IC50 [1, 3] of 1 to 500 nM.
Work on COc1ccc2c(c1)C1CC1(C(=O)N1C3CCC1CN(C)C3)Cn1c-2c(C2CCCCC2)c2ccc(C(=O)NS(=O)(=O)N3CCCC3)cc21 (stereo not shown) yielded an EC50 (HCV replicon cells; Hepatitis C virus) of 1 to 500 nM and an IC50 [1] of 1 to 500 nM.
In the case of CCN(CC)C(=O)N1CC2CCC(C1)N2C(=O)C12CC1c1cc(OC)ccc1-c1c(C3CCCCC3)c3ccc(C(=O)NS(=O)(=O)N4CCN(C)CC4)cc3n1C2 (stereo not shown) [drawing 93], the EC50 (HCV replicon cells; Hepatitis C virus) is reported as 1 to 500 nM and the IC50 [1] is reported as 1 to 500 nM.
CN1CC2CCC(C1)N2C(=O)C12CC1c1c(OC(F)(F)F)cccc1-c1c(C3CCCCC3)c3ccc(C(=O)NS(=O)(=O)N(C)C)cc3n1C2 (stereo not shown) showed an EC50 (HCV replicon cells; Hepatitis C virus) of 1 to 500 nM and an IC50 [1] of 1 to 500 nM.
In the case of COc1ccc2c(c1)[C@@H]1CC1[C@@H](C(=O)N1C3CCC1CN(C)C3)n1c-2c(C2CCCCC2)c2ccc(C(=O)N(C)S(=O)(=O)N(C)C)cc21 (stereo partly shown), the EC50 (HCV replicon cells; Hepatitis C virus) is reported as > 40 nM and the IC50 [1] is reported as > 500 nM.
Work on CN1CC2CCC(C1)N2C(=O)C12CC1c1cc(O)ccc1-c1c(C3CCCCC3)c3ccc(C(=O)NS(=O)(=O)N(C)C)cc3n1C2 (stereo not shown) [drawing 70] yielded an EC50 (HCV replicon cells; [2]) of 1 to 500 nM and an IC50 [1, 3] of 1 to 500 nM.
For COc1ccc2c(c1)C1CC1(CN1C3CCC1CN(C)C3)Cn1c-2c(C2CCCCC2)c2ccc(C(=O)NS(=O)(=O)N(C)C)cc21 (stereo not shown), the EC50 (HCV replicon cells; Hepatitis C virus) was 1 to 500 nM and the IC50 [1] was 1 to 500 nM.
For COc1ccc2c(c1)[C@@H]1C[C@]1(C(=O)N1[C@@H]3CC[C@H]1CN(C(=O)N(C)C)C3)Cn1c-2c(C2CCCCC2)c2ccc(C(=O)NS(=O)(=O)N(C)C)cc21, the EC50 (HCV replicon cells; Hepatitis C virus) was 1 to 500 nM and the IC50 [1] was 1 to 500 nM.
COc1ccc2c(c1)C1CC1(C(=O)N1C3CCC1CN(C)C3)Cn1c-2c(C2CCCCC2)c2ccc(C(=O)NS(=O)(=O)N3CCC3)cc21 (stereo not shown) [drawing 101] was tested, and the EC50 (HCV replicon cells; Hepatitis C virus) was 1 to 500 nM and the IC50 [1] was 1 to 500 nM.
For CCN(CC)C(=O)N1CC2CCC(C1)N2C(=O)C12CC1c1cc(OC)ccc1-c1c(C3CCCCC3)c3ccc(C(=O)NS(=O)(=O)C4CC4)cc3n1C2 (stereo not shown) [drawing 105], the EC50 (HCV replicon cells; [2]) was 1 to 500 nM and the IC50 [1, 3] was 1 to 500 nM.
For CCN(CC)S(=O)(=O)NC(=O)c1ccc2c(C3CCCCC3)c3n(c2c1)CC1(C(=O)N2C4CCC2CN(C)C4)CC1c1cc(OC)ccc1-3 (stereo not shown) [drawing 97], the EC50 (HCV replicon cells; Hepatitis C virus) was 1 to 500 nM and the IC50 [1] was 1 to 500 nM.
For COc1ccc2c(c1)C1CC1C(C(=O)N1C3CCC1CN(C)C3)n1c-2c(C2CCCCC2)c2ccc(C(=O)NS(=O)(=O)C3CC3)cc21 (stereo not shown) [drawing 100], the EC50 (HCV replicon cells; Hepatitis C virus) was 1 to 500 nM and the IC50 [1] was 1 to 500 nM.
With CNS(=O)(=O)NC(=O)c1ccc2c(C3CCCCC3)c3n(c2c1)CC1(C(=O)N2C4CCC2CN(C)C4)CC1c1cc(OC)ccc1-3 (stereo not shown) [drawing 48] the EC50 (HCV replicon cells; [2]) was 1 to 500 nM and the IC50 [1, 3] was 1 to 500 nM.
CCS(=O)(=O)NC(=O)c1ccc2c(C3CCCCC3)c3n(c2c1)CC1(C(=O)N2C4CCC2CN(C)C4)CC1c1cc(OC)ccc1-3 (stereo not shown) [drawing 91] gave an EC50 (HCV replicon cells; Hepatitis C virus) of 1 to 500 nM and an IC50 [1] of 1 to 500 nM.
With CCN(C)S(=O)(=O)NC(=O)c1ccc2c(C3CCCCC3)c3n(c2c1)CC1(C(=O)N2C4CCC2CN(C)C4)CC1c1cc(OC)ccc1-3 (stereo not shown) [drawing 109] the EC50 (HCV replicon cells; [2]) was 1 to 500 nM and the IC50 [1, 3] was 1 to 500 nM.
With COc1ccc2c(c1)C1CC1(C(=O)N1C3CCC1CN(C)C3)Cn1c-2c(C2CCCCC2)c2ccc(C(=O)NS(=O)(=O)N3CCN(C)CC3)cc21 (stereo not shown) [drawing 54] the EC50 (HCV replicon cells; [2]) was 1 to 500 nM and the IC50 [1, 3] was 1 to 500 nM.
Work on CCCCS(=O)(=O)NC(=O)c1ccc2c(C3CCCCC3)c3n(c2c1)CC1(C(=O)N2C4CCC2CN(C)C4)CC1c1cc(OC)ccc1-3 (stereo not shown) yielded an EC50 (HCV replicon cells; Hepatitis C virus) of 1 to 500 nM and an IC50 [1] of 1 to 500 nM.
In the case of CN1CC2CCC(C1)N2C(=O)C12CC1c1cc(O)ccc1-c1c(C3CCCCC3)c3ccc(C(=O)NS(=O)(=O)N(C)C)cc3n1C2 (stereo not shown) [drawing 44], the EC50 (HCV replicon cells; Hepatitis C virus) is reported as 1 to 500 nM and the IC50 [1] is reported as 1 to 500 nM.
Work on COc1ccc2c(c1)C1CC1(C(=O)N1C3CCC1CN(C)C3)Cn1c-2c(C2CCCCC2)c2ccc(C(=O)NS(C)(=O)=O)cc21 (stereo not shown) [drawing 102] yielded an EC50 (HCV replicon cells; [2]) of 1 to 500 nM and an IC50 [1, 3] of 1 to 500 nM.
Work on COc1ccc2c(c1)C1CC1(C(=O)NC1CC3CCC(C1)N3C)Cn1c-2c(C2CCCCC2)c2ccc(C(=O)NS(=O)(=O)N(C)C)cc21 (stereo not shown) [drawing 39] yielded an EC50 (HCV replicon cells; Hepatitis C virus) of 1 to 500 nM and an IC50 [1] of 1 to 500 nM.
Molecule COc1ccc2c(c1)C1CC1(C(=O)N1[C@@H]3CC[C@H]1CN(Cc1ccccc1)C3)Cn1c-2c(C2CCCCC2)c2ccc(C(=O)NS(=O)(=O)N(C)C)cc21 (stereo partly shown) has an EC50 (HCV replicon cells; Hepatitis C virus) of 1 to 500 nM and an IC50 [1] of 1 to 500 nM.
In the case of CCN(CC)C(=O)N1CC2CCC(C1)N2C(=O)C12CC1c1cc(OC)ccc1-c1c(C3CCCCC3)c3ccc(C(=O)NS(=O)(=O)C4CC4)cc3n1C2 (stereo not shown) [drawing 92], the EC50 (HCV replicon cells; Hepatitis C virus) is reported as 1 to 500 nM and the IC50 [1] is reported as 1 to 500 nM.
Work on COc1ccc2c(c1)C1CC1(C(=O)N1C3CCC1CN(C)C3)Cn1c-2c(C2CCCCC2)c2ccc(C(=O)NS(=O)(=O)N3CCCCC3)cc21 (stereo not shown) [drawing 108] yielded an EC50 (HCV replicon cells; [2]) of 1 to 500 nM and an IC50 [1, 3] of 1 to 500 nM.
COc1ccc2c(c1)C1CC1(C(=O)N1C3CCC1CN(C)C3)Cn1c-2c(C2CCCCC2)c2ccc(C(=O)NS(=O)(=O)C3CC3)cc21 (stereo not shown) was tested, and the EC50 (HCV replicon cells; Hepatitis C virus) was 1 to 500 nM and the IC50 [1] was 1 to 500 nM.
